Source: US9187450B2, “Substituted pyridine compound” (Daiichi Sankyo Company, Limited, priority 2010, dated 2015)

What follows are compounds tested against recombinant human CETP protein (Homo sapiens (Human), UniProt P11597) (assay: Test of CETP inhibition activity (in vitro, buffer-based)). Settings: reconstituted HDL with [14C]-labeled cholesteryl ester, acceptor lipoprotein, 37° C.
Format: biochemical
Experimental: Test of CETP Inhibition Activity (In Vitro, Buffer-Based)
(1) Preparation of Reconstituted HDL
Cholesterol (1.125 μmol), phosphatidyl choline (4.5 μmol) and [^14C]-labeled cholesteryl ester (2.0 μCi; 40 μl) were taken in a glass test tube and well mixed with a vortex, and dried under a nitrogen gas current so that it formed a thin film. The obtained mixture was dissolved in ethanol (200 μl), which was designated as Solution A. A PBS solution [a mixed solution of Na2HPO4 (30 mM), KH2PO4 (8.8 mM), NaCl (60 mM) and EDTA (pH 7.4; 0.67 mM); 4 ml] was taken in a tube and the reaction solution was vigorously stirred with a vortex under a nitrogen current. The above-described Solution A was gently injected into this mixture with a syringe and the reaction solution was vigorously stirred with a vortex for 5 minutes under a nitrogen current. Sodium cholate ([…]; 0.38 ml) was added to the obtained mixture and the reaction solution was stirred for 2 minutes. ApoA-I protein (3 mg) was added to the obtained mixture and the reaction solution was stirred for 2 minutes. The obtained mixture was adjusted to 5 ml with the PBS solution and then dialyzed with the PBS solution. The obtained mixture was designated as the reconstituted HDL.
(2) Preparation of Acceptor Lipoprotein
NaBr was added to the plasma of a healthy person and the density of the mixture was adjusted to 1.019, and the mixture was subjected to density gradient centrifugation (40000 rpm, for 16 hours) to remove the fraction having a density of less than 1.019. NaBr was added to the obtained mixture and the density of the solution was adjusted to 1.063, and the solution was subjected to density gradient centrifugation (40000 rpm, 18 hours) to provide the fraction consisting of IDL (intermediate density lipoprotein) and LDL (1.019<density<1.063). The obtained fraction was dialyzed with the PBS solution. The obtained mixture was designated as the acceptor lipoprotein.
(3) Measurement of CETP Inhibition Activity
A recombinant human CETP protein (manufactured by Roar Biomedical Inc.; 4.5 ng), the acceptor lipoprotein described in (2) above (32.5 μg) and 5,5′-dithio-bis-(2-nitrobenzoic acid) (7 mM, 15 μl) were taken in a 96 well plate and the total amount of the mixture was adjusted to 48.5 μl with the PBS solution. The test compound [DMSO solution (concentration: 0.15, 0.5, 1.5, 5, 15, 50, 150 and 500 μM; 1.5 μl] was added to each well and the mixture was incubated in a thermostatic bath at 37° C. for 60 minutes. The reconstituted HDL (50 μl) described in (1) above was added to each well and the mixture was reacted in a thermostatic bath at 37° C. for 60 minutes. The 96 well plate was moved onto ice and a precipitation reagent [a mixed solution of magnesium chloride (60 mM) and 0.1% dextran sulfate [1/1 (v/v)]; 15 μl] was added to each well, and then the mixture was allowed to stand on ice for 15 minutes. The reaction solution (80 μl) in each well was moved to a filter plate and centrifuged at 1500 rpm for 1 minute, and the filtrate which passed through the filter was designated as the HDL fraction and the radioactivity thereof was measured with a scintillation counter. The percentage decrease in radioactivity in the case where the test compound was added in comparison with that in case where the test compound was not added was designated as the percentage CETP inhibition. The IC50 value was calculated from the percentage CETP inhibition.

Chain of recombinant human CETP protein (P11597 18-493): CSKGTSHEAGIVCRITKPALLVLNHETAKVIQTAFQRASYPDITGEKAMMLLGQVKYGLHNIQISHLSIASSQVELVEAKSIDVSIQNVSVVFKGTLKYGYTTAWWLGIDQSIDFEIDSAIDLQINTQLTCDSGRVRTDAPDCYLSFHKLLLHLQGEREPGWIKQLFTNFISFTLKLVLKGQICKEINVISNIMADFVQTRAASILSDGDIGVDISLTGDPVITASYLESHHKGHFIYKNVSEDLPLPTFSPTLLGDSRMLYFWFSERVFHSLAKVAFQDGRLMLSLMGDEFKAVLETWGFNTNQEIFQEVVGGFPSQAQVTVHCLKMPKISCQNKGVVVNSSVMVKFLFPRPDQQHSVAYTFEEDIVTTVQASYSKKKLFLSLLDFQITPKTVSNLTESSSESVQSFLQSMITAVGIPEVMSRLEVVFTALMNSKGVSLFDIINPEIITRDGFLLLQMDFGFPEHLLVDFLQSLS

Row | SMILES | IC50 [nM]
1 | CC1(C)Cc2nc(C3CCN(c4ncc(N5CCSCC5)cn4)CC3)c([C@@H](F)c3ccc(C(F)(F)F)cc3)c(C3CCC(F)(F)CC3)c2[C@@H](O)C1 (single isomer, unassigned) [Example 9, (−)-4-(4,4-Difluorocyclohexyl)-3-{fluoro[4-(trifluoromethyl)phenyl]methyl}-7,7-dimethyl-2-{1-[5-(thiomorpholin-4-yl)pyrimidin-2-yl]piperidin-4-yl}-5,6,7,8-tetrahydroquinolin-5-ol] | 122
2 | CC1(C)Cc2nc(C3CCN(c4ncc(C5=CCCCC5)cn4)CC3)c([C@@H](F)c3ccc(C(F)(F)F)cc3)c(C3CCC(F)(F)CC3)c2[C@@H](O)C1 (single isomer, unassigned) [Example 18, (−)-2-{1-[5-(Cyclohex-1-ene-1-yl)pyrimidin-2-yl]piperidin-4-yl}-4-(4,4-difluorocyclohexyl)-3-{fluoro[4-(trifluoromethyl)phenyl]methyl}-7,7-dimethyl-5,6,7,8-tetrahydroquinolin-5-ol] | 177
3 | COc1cnc(N2CCC(c3nc4c(c(C5CCC(F)(F)CC5)c3[C@@H](F)c3ccc(C(F)(F)F)cc3)[C@@H](O)CC(C)(C)C4)CC2)nc1 (single isomer, unassigned) [Example 3, (−)-4-(4,4-Difluorocyclohexyl)-3-{fluoro[4-(trifluoromethyl)phenyl]methyl}-2-[1-(5-methoxypyrimidin-2-yl)piperidin-4-yl]-7,7-dimethyl-5,6,7,8-tetrahydroquinolin-5-ol] | 51
4 | CC1(C)Cc2nc(C3CCN(c4ncc(N5CCCCC5)cn4)CC3)c([C@@H](F)c3ccc(C(F)(F)F)cc3)c(C3CCC(F)(F)CC3)c2[C@@H](O)C1 (single isomer, unassigned) [Example 6, (−)-4-(4,4-Difluorocyclohexyl)-3-{fluoro[4-(trifluoromethyl)phenyl]methyl}-7,7-dimethyl-2-{1-[5-(piperidin-1-yl)pyrimidin-2-yl]piperidin-4-yl}-5,6,7,8-tetrahydroquinolin-5-ol] | 66
5 | CC(C)CCOc1cnc(N2CCC(c3nc4c(c(C5CCC(F)(F)CC5)c3[C@@H](F)c3ccc(C(F)(F)F)cc3)[C@@H](O)CC(C)(C)C4)CC2)nc1 (single isomer, unassigned) [Example 22, (−)-4-(4,4-difluorocyclohexyl)-3-{fluoro[4-(trifluoromethyl)phenyl]methyl}-7,7-dimethyl-2-{1-[5-(3-methylbutoxyl)pyrimidine-2-yl]piperidin-4-yl}-5,6,7,8-tetrahydroquinoline-5-ol] | 111
6 | CC(C)COc1cnc(N2CCC(c3nc4c(c(C5CCC(F)(F)CC5)c3[C@@H](F)c3ccc(C(F)(F)F)cc3)[C@@H](O)CC(C)(C)C4)CC2)nc1 (single isomer, unassigned) [Example 21, (−)-4-(4,4-difluorocyclohexyl)-3-{fluoro[4-(trifluoromethyl)phenyl]methyl}-7,7-dimethyl-2-{1-[5-(2-methylpropoxy)pyrimidine-2-yl]piperidin-4-yl}-5,6,7,8-tetrahydroquinoline-5-ol] | 99
7 | CC(C)OCc1cnc(N2CCC(c3nc4c(c(C5CCC(F)(F)CC5)c3[C@@H](F)c3ccc(C(F)(F)F)cc3)[C@@H](O)CC(C)(C)C4)CC2)nc1 (single isomer, unassigned) [Example 28, (−)-4-(4,4-difluorocyclohexyl)-3-{fluoro[4-(trifluoromethyl)phenyl]methyl}-7,7-dimethyl-2-(1-{5-[(propan-2-yloxy)methyl]pyrimidine-2-yl}piperidin-4-yl)-5,6,7,8-tetrahydroquinoline-5-ol] | 78
8 | CC1(C)Cc2nc(C3CCN(c4ncccn4)CC3)c([C@@H](F)c3ccc(C(F)(F)F)cc3)c(C3CCC(F)(F)CC3)c2[C@@H](O)C1 (single isomer, unassigned) [Example 1, (−)-4-(4,4-Difluorocyclohexyl)-3-{fluoro[4-(trifluoromethyl)phenyl]methyl}-7,7-dimethyl-2-[1-(pyrimidin-2-yl)-piperidin-4-yl]-5,6,7,8-tetrahydroquinolin-5-ol] | 83

The next compounds have a lower IC50 than those just listed; values first:

Row | IC50 [nM] | SMILES
9 | 42 | CC1(C)Cc2nc(C3CCN(c4ncc(OC(F)F)cn4)CC3)c([C@@H](F)c3ccc(C(F)(F)F)cc3)c(C3CCC(F)(F)CC3)c2[C@@H](O)C1 (single isomer, unassigned) [Example 48, (−)-4-(4,4-Difluorocyclohexyl)-2-{1-[5-(difluoromethoxy)pyrimidin-2-yl]piperidin-4-yl}-3-{fluoro[4-(trifluoromethyl)phenyl]methyl}-7,7-dimethyl-5,6,7,8-tetrahydroquinolin-5-ol]
10 | 35 | CN(CCO)Cc1cnc(N2CCC(c3nc4c(c(C5CCC(F)(F)CC5)c3[C@@H](F)c3ccc(C(F)(F)F)cc3)[C@@H](O)CC(C)(C)C4)CC2)nc1 (single isomer, unassigned) [Example 36, (−)-4-(4,4-difluorocyclohexyl)-3-{fluoro[4-(trifluoromethyl)phenyl]methyl}-2-{1-(5-{[(2-hydroxyethyl)(methyl)amino]methyl}pyrimidine-2-yl)piperidin-4-yl}-7,7-dimethyl-5,6,7,8-tetrahydroquinoline-5-ol]
11 | 32 | CC1(C)Cc2nc(C3CCN(c4ncc(OC[C@@H](O)CO)cn4)CC3)c([C@@H](F)c3ccc(C(F)(F)F)cc3)c(C3CCC(F)(F)CC3)c2[C@@H](O)C1 [Example 39, (−)-4-(4,4-Difluorocyclohexyl)-2-[1-(5-{[(2S)-2,3-dihydroxypropyl]oxy}pyrimidin-2-yl)piperidin-4-yl]-3-{fluoro[4-(trifluoromethyl)phenyl]methyl}-7,7-dimethyl-5,6,7,8-tetrahydroquinolin-5-ol]
12 | 32 | CNC(=O)c1cnc(N2CCC(c3nc4c(c(C5CCC(F)(F)CC5)c3[C@@H](F)c3ccc(C(F)(F)F)cc3)[C@@H](O)CC(C)(C)C4)CC2)nc1 (single isomer, unassigned) [Example 30, 4-(4,4-Difluorocyclohexyl)-3-{fluoro[4-(trifluoromethyl)phenyl]methyl}-7,7-dimethyl-2-{1-[5-(methylcarbamoyl)pyrimidin-2-yl]piperidin-4-yl}-5,6,7,8-tetrahydroquinolin-5-ol]
13 | 19 | CC1(C)Cc2nc(C3CCN(c4ncc(CCCCC(=O)O)cn4)CC3)c([C@@H](F)c3ccc(C(F)(F)F)cc3)c(C3CCC(F)(F)CC3)c2[C@@H](O)C1 (single isomer, unassigned) [Example 25, (−)-2-{1-[5-(4-carboxybutyl)pyrimidine-2-yl]piperidin-4-yl}-4-(4,4-difluorocyclohexyl)-3-{fluoro[4-(trifluoromethyl)phenyl]methyl}-7,7-dimethyl-5,6,7,8-tetrahydroquinoline-5-ol]
14 | 19 | CN1CCN(c2cnc(N3CCC(c4nc5c(c(C6CCC(F)(F)CC6)c4[C@@H](F)c4ccc(C(F)(F)F)cc4)[C@@H](O)CC(C)(C)C5)CC3)nc2)CC1 (single isomer, unassigned) [Example 8, (−)-4-(4,4-Difluorocyclohexyl)-3-{fluoro[4-(trifluoromethyl)phenyl]methyl}-7,7-dimethyl-2-{1-[5-(4-methylpiperazin-1-yl)pyrimidin-2-yl]piperidin-4-yl}-5,6,7,8-tetrahydroquinolin-5-ol]
15 | 16 | CN1CC[C@@H](Oc2cnc(N3CCC(c4nc5c(c(C6CCC(F)(F)CC6)c4C(F)c4ccc(C(F)(F)F)cc4)C(O)CC(C)(C)C5)CC3)nc2)C1 (single isomer, unassigned) [Example 41]
16 | 13 | CC1(C)Cc2nc(C3CCN(c4ncc(OCCCS(C)(=O)=O)cn4)CC3)c([C@@H](F)c3ccc(C(F)(F)F)cc3)c(C3CCC(F)(F)CC3)c2[C@@H](O)C1 (single isomer, unassigned) [Example 45, (−)-4-(4,4-Difluorocyclohexyl)-3-{fluoro[4-(trifluoromethyl)phenyl]methyl}-7,7-dimethyl-2-(1-{5-[3-(methylsulphonyl)propoxy]pyrimidin-2-yl}piperidin-4-yl)-5,6,7,8-tetrahydroquinolin-5-ol]
